Legend:
Huh-9B = assay: Toxicity determination on the tox plate by methylene blue staining; type: cell-based; settings: Huh-9B cells, parallel tox plate
Method: (§1) Cells are suspended in growth media and counted using a haemocytometer. Duplicate 96 well plates are seeded with Huh-9B at a density of 10^4 cells/well in a total volume of 100 μl/well of growth medium without antibiotics as depicted below.
(§2) One of the plates is an opaque white 96-well plate used for IC50 determination based on the luciferase signal (referred as replicon plate), the other one is a clear 96-well plate used for a parallel determination of drug toxicity by methylene blue staining (referred as tox plate). Wells G12 and H12 of the tox plate are left without cells to use as buffer alone background reading.
(§3) Doubling dilutions of each compound are generated in a separate 96 high volume capacity round bottom plate to twice their initial concentration in the assay using growth medium without antibiotics.
(§4) Compounds are tested across an 8 point doubling dilution series. The initial dilution of each compound to be tested is 25 μM and 12.5 μM for the control compound.
(§5) For each compound dilution on the 2×96-well dilution plate 100 μl are transferred using a multichannel pipette onto the replicon and tox plates mirror wells which contain […] of medium to obtain the desired final concentration.
Media is tapped out from wells into Virkon and plates tapped dry gently. To each well 100 μl of 0.5% solution of methylene blue in 50% methanol is added to all wells including blanks (G12 and H12). Plates are left at RT for a minimum of 1 h. Plates are then rinsed gently by immersing in a plastic box with water, tapped dry gently and left open until they are fully dry. Dye is solubilized adding 100 μl of 1% lauroylsarcosine to each well and shaking for 1 h at 37° C. Plates are read on the SpectraMax spectrophotometer at 620 nm wavelength using the SOFTmax Pro software package.
(§6) SOFTmax data files are exported as Excel or text files. A standard four parameters non-linear regression analysis of the data obtained from each compound is then used to calculate the IC50.
(§7) In the above analysis all replicate wells are meaned. The % of control is then calculated for each concentration point as a percentage of the DMSO control wells.

HCV replicon 1b (Huh-9B) = assay: HCV replicon activity, luciferase detection on the replicon plate; type: cell-based, HCV genotype 1b; settings: Huh-9B replicon cells, luciferase signal
Excerpt: 1b replicon (Huh.7) described in Science 285, 110-113. • Huh-9B: liver cell line with persistent bicistronic HCV genotype 1b coding sequence: [I3891ucubineo—3-3′_ET] includes firefly luciferase-ubiquitin-neomycin phosphotransferase fusion protein and EMCV-IRES driven non-structural HCV (NS3 to NS5B) coding sequence including cell culture adaptive mutations E1202G, […] and K1846T (Lohmann et al, 2001).
This assay is set up using all 96 wells of flat-bottomed 96-well plates. Plates are set up one day before addition of compounds. The assay then runs for 4 days with ELISA development taking place on the 5th day.
Exponentially growing Huh-9B monolayers are washed with sterile PBS to remove serum and treated with trypsin to detach cells from the flask.
as §1, §2
Plates are then incubated at 37° C. in a 5% CO2 environment for 24 h to obtain a 90% confluent cell monolayer.
as §3
Five compounds (C1 to C5) are tested on each assay plate as illustrated below plus a control compound that is also included in each plate.
as §4
DMSO only wells (A1 and A2) at 1% provide the signal corresponding to maximal (100%) luciferase detection. […] The signal from the DMSO wells at 1% (maximal signal) constitutes the assay window.
as §5
Media is tapped out from wells into Virkon and plates are washed once in warm PBS and tapped dry gently.
For each well 20 μl of lysis buffer is added by multichannel pipette. Lysates are stable at this point for several hours.
Luciferase assay buffer is placed it in the luminometer (Lmax, Molecular Devices).
The M injector is primed with 4×300 μl of luciferase assay buffer. The plate to be analyzed is placed in the luminometer and […] of luciferase assay buffer injected automatically into one well followed by 4 seconds integration read out.
After one second delay a second well is injected with 100 μl of luciferase assay buffer followed by 4 seconds integration read out and so forth until all 96 wells are analyzed.
Once the reading is finished the luminometer injection system is washed with deionised water.
The data is acquired using the SOFTmax for Lmax Pro software package.
as §6, §7

Molecule | Replicon TD50 (Huh-9B) | IC50 (HCV replicon 1b (Huh-9B)) [µM] | IC50 (HCV replicon 1b (Huh-9B); Hepatitis C virus) [µM]
1-(4-{6-[3-Fluoro-4-(2-methoxy-ethoxy)-phenyl]-quinazolin-4-ylamino}-phenyl)-5-methyl-1H-[1,2,4]triazole-3-carboxylic acid [Example 28] | ** (** >25 μM) | 5 to 20 | 
Ic1ccc2ncnc(Nc3ccc(-n4cncn4)cc3)c2c1 [Example 1, (6-Iodo-quinazolin-4-yl)-(4-[1,2,4]triazol-1-yl-phenyl)-amine] | * (* <25 μM) |  | < 5
CC(C)(C)c1ccc2ncnc(Nc3ccc(-n4cncn4)cc3)c2c1 [Example 2, (6-tert-Butyl-quinazolin-4-yl)-(4-[1,2,4]triazol-1-yl-phenyl)-amine] | ** (** >25 μM) |  | 5 to 20
COc1cc2c(Nc3ccc(-n4cncn4)cc3)ncnc2cc1OCCCCl [Example 3, [7-(3-Chloro-propoxy)-6-methoxy-quinazolin-4-yl]-(4-[1,2,4]triazol-1-yl-phenyl)amine] | ** (** >25 μM) |  | < 5
COc1cc2c(Nc3ccc(-n4cncn4)cc3)ncnc2cc1OCCCN1CCOCC1 [Example 4, [6-Methoxy-7-(3-morpholin-4-yl-propoxy)-quinazolin-4-yl]-(4-[1,2,4]triazol-1-yl-phenyl)-amine] | ** (** >25 μM) |  | 5 to 20
Fc1ccc(-c2ccc3ncnc(Nc4ccc(-n5cncn5)cc4)c3c2)cc1F [Example 5, [6-(3,4-Difluoro-phenyl)-quinazolin-4-yl]-(4-[1,2,4]triazol-1-yl-phenyl)-amine] | ** (** >25 μM) |  | < 5
Fc1cc(-c2ccc3ncnc(Nc4ccc(-n5cncn5)cc4)c3c2)ccc1Cl [Example 6, [6-(4-Chloro-3-fluoro-phenyl)-quinazolin-4-yl]-(4-[1,2,4]triazol-1-yl-phenyl)-amine] | ** (** >25 μM) |  | > 20
COc1ccc(-c2ccc3ncnc(Nc4ccc(-n5cncn5)cc4)c3c2)cc1F [Example 7, [6-(3-Fluoro-4-methoxy-phenyl)-quinazolin-4-yl]-(4-[1,2,4]triazol-1-yl-phenyl)-amine] | ** (** >25 μM) |  | < 5
CCOc1ccc(-c2ccc3ncnc(Nc4ccc(-n5cncn5)cc4)c3c2)cc1F [Example 8, [6-(4-Ethoxy-3-fluoro-phenyl)-quinazolin-4-yl]-(4-[1,2,4]triazol-1-yl-phenyl)-amine] | ** (** >25 μM) |  | < 5
COCCOc1ccc(-c2ccc3ncnc(Nc4ccc(-n5cncn5)cc4)c3c2)cc1F [Example 9, {6-[3-Fluoro-4-(2-methoxy-ethoxy)-phenyl]-quinazolin-4-yl}-(4-[1,2,4]triazol-1-yl-phenyl)-amine] | ** (** >25 μM) |  | < 5
CCOc1ccc(-c2ccc3ncnc(Nc4ccc(-n5cncn5)cc4)c3c2)cc1OCC [Example 11, [6-(3,4-Diethoxy-phenyl)-quinazolin-4-yl]-(4-[1,2,4]triazol-1-yl-phenyl)-amine] | ** (** >25 μM) |  | < 5
CN(C)CCOc1ccc(-c2ccc3ncnc(Nc4ccc(-n5cncn5)cc4)c3c2)cc1 [Example 12, {6-[4-(2-Dimethylamino-ethoxy)-phenyl]-quinazolin-4-yl}-(4-[1,2,4]triazol-1-yl-phenyl)-amine] | * (* <25 μM) |  | < 5
c1cc(COc2ccc(-c3ccc4ncnc(Nc5ccc(-n6cncn6)cc5)c4c3)cc2)ccn1 [Example 13] | * (* <25 μM) | 5 to 20 | 
c1nc(Nc2ccc(-n3cncn3)cc2)c2cc(-c3ccc(N4CCOCC4)cc3)ccc2n1 [Example 14] | * (* <25 μM) | < 5 | 
c1nc(Nc2ccc(-n3cncn3)cc2)c2cc(-c3ccc4c(c3)OCCO4)ccc2n1 [Example 15, [6-(2,3-Dihydro-benzo[1,4]dioxin-6-yl)-quinazolin-4-yl]-(4-[1,2,4]triazol-1-yl-phenyl)-amine] | ** (** >25 μM) |  | < 5
COc1ncc(-c2ccc3ncnc(Nc4ccc(-n5cncn5)cc4)c3c2)cn1 [Example 16, [6-(2-Methoxy-pyrimidin-5-yl)-quinazolin-4-yl]-(4-[1,2,4]triazol-1-yl-phenyl)-amine] | ** (** >25 μM) |  | < 5
c1csc(-c2ccc3ncnc(Nc4ccc(-n5cncn5)cc4)c3c2)c1 [Example 17, (6-Thiophen-2-yl-quinazolin-4-yl)-(4-[1,2,4]triazol-1-yl-phenyl)-amine] | ** (** >25 μM) |  | < 5
Cc1csc(-c2ccc3ncnc(Nc4ccc(-n5cncn5)cc4)c3c2)c1 [Example 18, [6-(4-Methyl-thiophen-2-yl)-quinazolin-4-yl]-(4-[1,2,4]triazol-1-yl-phenyl)-amine] | ** (** >25 μM) |  | < 5
c1coc(-c2ccc3ncnc(Nc4ccc(-n5cncn5)cc4)c3c2)c1 [Example 19] | ** (** >25 μM) | < 5 | 
CN(C)CCOc1ccc(-c2ccc3ncnc(Nc4ccc(-n5cncn5)cc4)c3c2)cc1F [Example 20, {6-[4-(2-Dimethylamino-ethoxy)-3-fluoro-phenyl]-quinazoline-4-yl}-(4-[1,2,4]triazole-1-yl-phenyl)amine] | * (* <25 μM) |  | < 5
Brc1ccc2ncnc(Nc3ccc(-n4cncn4)cc3)c2c1 [Example 21, (6-Bromo-quinazolin-4-yl)-(4-[1,2,4]triazol-1-yl-phenyl)-amine] | ** (** >25 μM) |  | < 5
CN(C)CCN(C)CCOc1ccc(-c2ccc3ncnc(Nc4ccc(-n5cncn5)cc4)c3c2)cc1F [Example 22, N-(2-{2-Fluoro-4-[4-(4-[1,2,4]triazol-1-yl-phenylamino)-quinazolin-6-yl]-phenoxy}-ethyl)-N,N′,N′-trimethyl-ethane-1,2-diamine] | * (* <25 μM) |  | < 5
COc1ccc(-c2ccc3ncnc(Nc4ccc(-n5cncn5)cc4)c3c2)cc1OC(C)C [Example 23, [6-(3-Isopropoxy-4-methoxy-phenyl)-quinazolin-4-yl]-(4-[1,2,4]triazol-1-yl-phenyl)-amine] | * (* <25 μM) |  | < 5
CC(C)Oc1cc(-c2ccc3ncnc(Nc4ccc(-n5cncn5)cc4)c3c2)ccc1F [Example 24, [6-(4-Fluoro-3-isopropoxy-phenyl)-quinazolin-4-yl]-(4-[1,2,4]triazol-1-yl-phenyl)-amine] | ** (** >25 μM) |  | < 5
Fc1cc(-c2ccc3ncnc(Nc4ccc(-n5cncn5)cc4)c3c2)ccc1OCCCN1CCCC1 [Example 25, {6-[3 fluoro-4-(3-pyrrolidin-1-yl-propoxy)-phenyl]-quinazoline-4-yl}-(4-[1,2,4]triazole-1-yl-phenyl)amine] | * (* <25 μM) |  | < 5
Fc1cc(-c2ccc3ncnc(Nc4ccc(-n5cncn5)cc4)c3c2)ccc1OCCCN1CCOCC1 [Example 26, {6-[3-fluoro-4-(3-morpholin-4-yl-propoxy)-phenyl]-quinazoline-4-yl}-(4-[1,2,4]triazole-1-yl-phenyl)amine] | * (* <25 μM) |  | < 5
COc1ccc(-c2ccc3ncnc(Nc4ccc(-n5cncn5)cc4C)c3c2)cc1OC [Example 27, [6-(3,4-Dimethoxy-phenyl)-quinazolin-4-yl]-(2-methyl-4-[1,2,4]triazol-1-yl-phenyl)-amine] | * (* <25 μM) |  | < 5

From US20100158863A1, “TRIAZOLOANILINOPYRIMIDINE DERIVATIVES FOR USE AS ANTIVIRAL AGENTS” (ARROW THERAPEUTICS LIMITED, priority 2006, published 2010)
